Data as given in patent US8846669B2, “Oxazolidinone derivative and medical composition containing same” (Legochem Biosciences, Inc., priority 2011, dated 2014).
In brackets after ≈: the same amount, converted by molar mass.

Columns and labels:
Assay in all cases: In vitro antibacterial activity, broth microdilution MIC90
Assay type in all cases: cell-based
Enterococcus faecalis = tested on: Enterococcus faecalis
Protocol: (§1) MIC90 was measured by broth microdilution method based on CLSI standards [reference: Clinical and Laboratory Standards Institute Document. (2000) Methods for Dilution Antimicrobial Susceptibility Test for Bacteria that Grow Aerobically-Fifth Edition: M7-A5. CLSI, Villanova, Pa.].
(§2) Activities of 12 strains including Staphylococcus aureus, Methicillin Resistant Staphylococcus aureus, Staphylococcus epidermidis, Methicillin Resistant Staphylococcus epidermidis, Enterococcus faecalis, Vancomycin Resistant Enterococcus faecalis, Linezolid and Vancomycin Resistant Enterococcus faecalis, Enterococcus faecium, Vancomycin Resistant Enterococcus faecium, Linezolid and Vancomycin Resistant Enterococcus faecium, and Moraxella catarrhalis, were measured, and results are shown in Table 1 below.
(§3) The final concentration of test material in the antibacterial test was from 0.063 μg/mL (minimum) to 128 μg/mL (maximum), and the final concentration of DMSO used as an excipient was 2.5% (V/V). Linezolid represented by Formula B below (manufactured by Pfizer) was used as a control and bacterial activity thereof was compared with those of the test materials.

Enterococcus faecium = tested on: Enterococcus faecium
Protocol: as §1, §2, §3

[1] = tested on: Linezolid and Vancomycin Resistant Enterococcus faecalis
Protocol: as §1, §2, §3

[2] = tested on: Linezolid and Vancomycin Resistant Enterococcus faecium (strain 10)
Protocol: as §1, §2, §3

[3] = tested on: Linezolid and Vancomycin Resistant Enterococcus faecium (strain 11)
Protocol: as §1, §2, §3

[4] = tested on: Methicillin Resistant Staphylococcus aureus
Protocol: as §1, §2, §3

[5] = tested on: Methicillin Resistant Staphylococcus epidermidis
Protocol: as §1, §2, §3

Moraxella catarrhalis = tested on: Moraxella catarrhalis
Protocol: as §1, §2, §3

Staphylococcus aureus = tested on: Staphylococcus aureus
Protocol: as §1, §2, §3

[6] = tested on: Staphylococcus epidermidis
Protocol: as §1, §2, §3

[7] = tested on: Vancomycin Resistant Enterococcus faecalis
Protocol: as §1, §2, §3

[8] = tested on: Vancomycin Resistant Enterococcus faecium
Protocol: as §1, §2, §3

Compound | MIC90 (Enterococcus faecalis; Enterococcus faecalis) [µg/mL] | MIC90 (Enterococcus faecium; Enterococcus faecium) [µg/mL] | MIC90 ([1]; Enterococcus faecalis) [µg/mL] | MIC90 ([2]; Enterococcus faecium) [µg/mL] | MIC90 ([3]; Enterococcus faecium) [µg/mL] | MIC90 ([4]; Staphylococcus aureus) [µg/mL] | MIC90 ([5]; Staphylococcus epidermidis) [µg/mL] | MIC90 (Moraxella catarrhalis; Moraxella catarrhalis) [µg/mL] | MIC90 (Staphylococcus aureus; Staphylococcus aureus) [µg/mL] | MIC90 ([6]; Staphylococcus epidermidis) [µg/mL] | MIC90 ([7]; Enterococcus faecalis) [µg/mL] | MIC90 ([8]; Enterococcus faecium) [µg/mL] | MIC90 (Enterococcus faecalis; strain 5, E. faecalis) [µg/mL] | MIC90 (Enterococcus faecium; strain 8, E. faecium) [µg/mL] | MIC90 ([1]; strain 7, E. faecalis VanA LR) [µg/mL] | MIC90 ([2]; strain 10, E. faecium VanA LR) [µg/mL] | MIC90 ([3]; strain 11, E. faecium VanA LR) [µg/mL] | MIC90 ([4]; strain 2, S. aureus MR) [µg/mL] | MIC90 ([5]; strain 4, S. epidermidis MR) [µg/mL] | MIC90 (Moraxella catarrhalis; strain 12, M. catarrhalis) [µg/mL] | further results
O=C(CO)N1CCN(c2ccc(-c3ccc(N4C[C@H](Cn5ccnn5)OC4=O)cc3F)cn2)C=N1 [Compound 32] | 0.5 (≈ 1.04 µM) | 0.25 (≈ 0.52 µM) | 2 (≈ 4.16 µM) | 2 (≈ 4.16 µM) | 2 (≈ 4.16 µM) | 1 (≈ 2.08 µM) | 1 (≈ 2.08 µM) | 2 (≈ 4.16 µM) | 0.25 (≈ 0.52 µM) | 0.25 (≈ 0.52 µM) | 0.5 (≈ 1.04 µM) | 0.5 (≈ 1.04 µM) |  |  |  |  |  |  |  |  | 
NC(=O)N1CCN(c2ccc(-c3ccc(N4C[C@H](Cn5ccnn5)OC4=O)cc3F)cn2)C=N1 [Compound 33] | 0.25 (≈ 0.537 µM) | 0.125 (≈ 0.269 µM) | 2 (≈ 4.3 µM) | 2 (≈ 4.3 µM) | 2 (≈ 4.3 µM) | 1 (≈ 2.15 µM) | 1 (≈ 2.15 µM) | 2 (≈ 4.3 µM) | 0.25 (≈ 0.537 µM) | 0.25 (≈ 0.537 µM) | 0.25 (≈ 0.537 µM) | 0.25 (≈ 0.537 µM) |  |  |  |  |  |  |  |  | 
CNC(=O)N1CCN(c2ccc(-c3ccc(N4C[C@H](Cn5ccnn5)OC4=O)cc3F)cn2)C=N1 [Compound 34] | 0.5 (≈ 1.04 µM) | 0.25 (≈ 0.521 µM) | 2 (≈ 4.17 µM) | 2 (≈ 4.17 µM) | 4 (≈ 8.34 µM) | 0.5 (≈ 1.04 µM) | 1 (≈ 2.09 µM) | 2 (≈ 4.17 µM) | 0.25 (≈ 0.521 µM) | 0.5 (≈ 1.04 µM) | 0.5 (≈ 1.04 µM) | 0.5 (≈ 1.04 µM) |  |  |  |  |  |  |  |  | 
O=C(C(O)CO)N1CCN(c2ccc(-c3ccc(N4C[C@H](Cn5ccnn5)OC4=O)cc3F)cn2)C=N1 (stereo partly drawn) [Compound 37] | 1 (≈ 1.96 µM) | 1 (≈ 1.96 µM) | 8 (≈ 15.7 µM) | 8 (≈ 15.7 µM) | 8 (≈ 15.7 µM) | 1 (≈ 1.96 µM) | 2 (≈ 3.92 µM) | 8 (≈ 15.7 µM) | 0.5 (≈ 0.979 µM) | 1 (≈ 1.96 µM) | 1 (≈ 1.96 µM) | 1 (≈ 1.96 µM) |  |  |  |  |  |  |  |  | 
NCC(=O)N1CCN(c2ccc(-c3ccc(N4C[C@H](Cn5ccnn5)OC4=O)cc3F)cn2)C=N1 [Compound 38] | 0.25 (≈ 0.521 µM) | 0.25 (≈ 0.521 µM) | 4 (≈ 8.34 µM) | 4 (≈ 8.34 µM) | 4 (≈ 8.34 µM) | 0.5 (≈ 1.04 µM) | 0.5 (≈ 1.04 µM) | 2 (≈ 4.17 µM) | 0.125 (≈ 0.261 µM) | 0.5 (≈ 1.04 µM) | 0.5 (≈ 1.04 µM) | 0.5 (≈ 1.04 µM) |  |  |  |  |  |  |  |  | 
Cl.O=C1O[C@@H](CNc2ccon2)CN1c1ccc(-c2ccc(N3C=NNCC3)nc2)c(F)c1 [Compound 39] |  |  |  |  |  |  |  |  |  |  |  |  | 0.5 | 0.25 | 4 | 4 | 4 | 0.5 | 2 | 2 | MIC90 (Staphylococcus aureus; strain 1, S. aureus): 0.25 µg/mL; MIC90 ([6]; strain 3, S. epidermidis): 1 µg/mL; MIC90 ([7]; strain 6, E. faecalis VanA): 1 µg/mL; MIC90 ([8]; strain 9, E. faecium VanA): 1 µg/mL
CN1CCN(c2ccc(-c3ccc(N4C[C@H](CNc5ccon5)OC4=O)cc3F)cn2)C=N1 [Compound 40] |  |  |  |  |  |  |  |  |  |  |  |  | 0.5 (≈ 1.11 µM) | 0.125 (≈ 0.277 µM) | 2 (≈ 4.43 µM) | 4 (≈ 8.86 µM) | 4 (≈ 8.86 µM) | 0.25 (≈ 0.554 µM) | 2 (≈ 4.43 µM) | 2 (≈ 4.43 µM) | MIC90 (Staphylococcus aureus; strain 1, S. aureus): 0.25 µg/mL (≈ 0.554 µM); MIC90 ([6]; strain 3, S. epidermidis): 0.5 µg/mL (≈ 1.11 µM); MIC90 ([7]; strain 6, E. faecalis VanA): 1 µg/mL (≈ 2.22 µM); MIC90 ([8]; strain 9, E. faecium VanA): 0.5 µg/mL (≈ 1.11 µM)
O=C(CO)N1CCN(c2ccc(-c3ccc(N4C[C@H](CNc5ccon5)OC4=O)cc3F)cn2)C=N1 [Compound 41] |  |  |  |  |  |  |  |  |  |  |  |  | 0.5 (≈ 1.01 µM) | 0.125 (≈ 0.252 µM) | 2 (≈ 4.04 µM) | 4 (≈ 8.07 µM) | 4 (≈ 8.07 µM) | 0.25 (≈ 0.505 µM) | 2 (≈ 4.04 µM) | 2 (≈ 4.04 µM) | MIC90 (Staphylococcus aureus; strain 1, S. aureus): 0.25 µg/mL (≈ 0.505 µM); MIC90 ([6]; strain 3, S. epidermidis): 0.5 µg/mL (≈ 1.01 µM); MIC90 ([7]; strain 6, E. faecalis VanA): 1 µg/mL (≈ 2.02 µM); MIC90 ([8]; strain 9, E. faecium VanA): 0.5 µg/mL (≈ 1.01 µM)
NCC(=O)N1CCN(c2ccc(-c3ccc(N4C[C@H](CNc5ccon5)OC4=O)cc3F)cn2)C=N1 [Compound 42] |  |  |  |  |  |  |  |  |  |  |  |  | 0.5 (≈ 1.01 µM) | 0.125 (≈ 0.253 µM) | 2 (≈ 4.04 µM) | 4 (≈ 8.09 µM) | 4 (≈ 8.09 µM) | 0.5 (≈ 1.01 µM) | 2 (≈ 4.04 µM) | 2 (≈ 4.04 µM) | MIC90 (Staphylococcus aureus; strain 1, S. aureus): 0.25 µg/mL (≈ 0.506 µM); MIC90 ([6]; strain 3, S. epidermidis): 0.5 µg/mL (≈ 1.01 µM); MIC90 ([7]; strain 6, E. faecalis VanA): 1 µg/mL (≈ 2.02 µM); MIC90 ([8]; strain 9, E. faecium VanA): 0.5 µg/mL (≈ 1.01 µM)
